Experimental data as given in patent publication US8409603B2, “Compositions and methods for tissue engineering, tissue regeneration and wound healing” (University of South Carolina, priority 2009, dated 2013).

System: lens epithelial cells
Test: Toroid (ring) formation by cells added onto polymerized collagen gel
Type: cell-based
Conditions: addition to the culture fluid of 3-30 ng
Procedure: FIG. 1 illustrates examples of toroids generated from EMT-primed lens epithelial cells; a-c) a control series of 3 toroids generated in regular media, d-f) a control series of 3 toroids generated in media containing a control peptide and g-h) a series of 3 toroids generated in media containing a an ACT1 peptide in combination with Tgfb1.
In a variation on this protocol, cells were added onto an already polymerized gel and the gel was detached after 24 hours of culture. Following a subsequent 24 hours it was noted that quite unlike what was observed when cells were pre-mixed into the gel, cells added post-polymerization always formed into uniform circular rings of repeatable diameter (FIG. 1b). […] Confocal microscopy of rhodamine-phalloidin and nuclear-DAPI stained gels indicated a two-phase structure with cells undergoing recruitment at the outer rim arranging in radial spoke-like arrays (FIG. 1e), whereas cells in on the inner rim organized into a contractile ring (FIG. 1f). […] This experiment was repeated with REC cells (Wada A M, Smith T K, Osler M E, Reese D E, Bader D M. Epicardial/Mesothelial cell line retains vasculogenic potential of embryonic epicardium. Circ Res. 2003 Mar. 21; 92(5):525-31. Epub 2003 Feb. 6, incorporated by reference herein), a rat […] with similar effect. […]

TGF-b
ring size of toroid: predictably altered
